Data published in patent US8895069B2, “Drug delivery system using hyaluronic acid-peptide conjugate micelle” (Postech Academy-Industry Foundation, priority 2011, dated 2014).
Ends that are not written are not given here.

Tests used:
[1] = tested on: corneal neovascularization; experiment: Corneal neovascularization after silver nitrate cauterization (Experimental Example 8); type: in vivo, Albino Sprague Dawley male rats; details: rat cornea, subconjunctival 20 μL; Avastin 10 mg/ml, peptide and conjugate […] peptide; NV control 90.8±5%
Description: All animal tests including this experiment were conducted in compliance with the guidelines of the Catholic University of Korea and the principles of laboratory animal care; NIH publication No. 85-23 revised in 1985.
The rat was put under anesthesia by an intra-peritoneal injection of a mixed solution of 20 mg/kg of ketamine hydrochloride and 2.5 mg/kg of xylazine hydrochloride. […] In 3 days after the cauterization, subconjunctival administration was conducted with 20 μL of each of 4 sample solutions (a normal control group, NV control (neovascularization control: a control group wherein angiogenesis was made to occur and no drug was treated thereon), a solution comprising Avastin (Roche) dissolved in PBS at a concentration of 10 mg/ml, a solution comprising anti-Flt1 peptide (GGNQWFI) (SEQ ID NO: 3) dissolved in PBS at a concentration of 2.5 mg/ml, and a solution comprising the hyaluronic acid-peptide conjugate with a lower peptide concentration obtained from Preparation Example 3 as dissolved in PBS at a concentration of 2.5 mg/ml based on the content of anti-Flt1 peptide). […] The obtained images were subjected to quantitative analysis with Image J program (Ver. 1.38, National Institute of Health, MD).

[2] = target: T1, binding between Flt1-Fc and VEGF165 (Homo sapiens, UniProt P17948); experiment: Inhibition of binding between Flt1-Fc and VEGF165 (chemiluminescence ELISA)
T1 construct: purchased R&D Systems
Description: A VEGF165 solution (with a concentration in PBS of 0.5 μg/mL) (R&D System) was put into 96-black well-plate, and reacted overnight at 4° C. to give a VEGF165-coated well. After being washed with PBS, the well was blocked with a blocking buffer (which is a BSA solution with BSA(Sigma-Aldrich) dissolved therein at a concentration of 3 wt % in a PBS buffer solution at pH 7.4) and washed again with PBS (at room temperature for 2 hours). The solutions of the anti-Flt1 peptide (GGNQWFI) (SEQ ID NO: […]) (SEQ ED NO: 3) and 500 ng/mL of Flt1-Fc (R&D systems, Minneapolis, Minn.) in a solution of BSA(Sigma-Aldrich) as dissolved in PBS (pH 7.4) at 1 wt %, or the solution of the hyaluronic acid-peptide conjugate with a lower peptide content of Preparation Example 3 test group (HA-GGNQWFI) (as prepared by conjugating 20 peptides per one HA-TBA molecule) was added to the VEGF165-coated well, and incubated at room temperature for one hour. […] Then, after the well was washed with a PBS comprising 0.05 wt % of Tween 20 three times and washed with a PBS once, the amount of the conjugated Flt1-Fc was measured with BM chemiluminescence ELISA substrate system (Victor 3 luminometer, PerkinElmer, Mass.). […]
The luminescence value of the positive control group without being treated with anti-FR1 peptide was set to be 100% and other data were normalized.

[3] = Pharmacokinetics in the vitreous body after intravitreal injection; type: in vivo, Sprague Dawley (SD) male rats
Description: Three groups consisted of a hyaluronic acid (HA) test group, an anti-Flt1 peptide (GGNQWFI) (SEQ ID NO: 3) test group, and a test group of the hyaluronic acid-peptide conjugate with a lower peptide content as prepared from Preparation Example 3 (HA-GGNQWFI). The anti-Flt1 peptide sample and the hyaluronic acid-peptide conjugate sample were made to have an identical peptide concentration of 5 mg/ml. 10 μL of each sample solution was injected into the vitroeus body, which was sampled in 6 hours, 1 day, 3 days, 7 days, 10 days, and 14 days and stored at −20° C. until analysis. The concentration of the anti-Flt1 peptide in the vitreous body was measured with fluorescence analysis. Specifically, the vitreous body was disintegrated by using 200 μL of RIPA buffer, and then subjected to centrifugation under 14,000 g at 4° C. for 10 minutes to provide a supernatant solution. By using a spectrofluorometer (Cary Eclipse Fluorescence Spectrophotometer, Varian, Australia), the photoluminescence of each sample was measured at an excitation wave length of 280 nm and an emission wavelength of 350 nm. The vitreous body of the SD rat that was not treated at all was used as a blank control.

[4] = TEM particle size of micelle; type: physicochemical; details: spherical particle, n=30
Description: The anti-Flt1 peptide (GGNQWFI) (SEQ ID NO: 3) and the hyaluronic acid-peptide conjugate with a lower peptide content as prepared from Preparation Example 3 were dissolved in 4004, of PBS to have a final peptide concentration of 1.25 mg/mL, respectively. The amount of the anti-Flt1 peptide contained in each solution was measured with a changeable UV transilluminator (DUT-260, Core Bio System, Korea) by using 312 nm of light source. The formation of the hyaluronic acid-peptide micelle in an aqueous solution was confirmed by using a transmission electron microscope (TEM) (Hitachi, Tokyo, Japan). For a TEM analysis, 10 μL of the hyaluronic acid-peptide conjugate solution was dropped onto a 300 mesh copper TEM grid with a carbon film and then was dried. The average particle size was calculated out from the diameters obtained from the images of 30 particles.
For a transmission electron microscope (TEM) (Hitachi, Tokyo, Japan) analysis, 10 μL of the solution of the drug-loaded, hyaluronic acid-peptide conjugate micelle was dropped onto a 300 mesh copper TEM grid with a carbon film and then was dried.

[5] = male, Sprague Dawley (SD), vitreous body, 50 µg, rat, single intravitreal 10 μL, peptide 5 mg/ml
[6] = rat, single intravitreal 10 μL, peptide 5 mg/ml

T1 sequence (P17948 with tags, fused parts or gaps isoform P17948-2 limits assumed): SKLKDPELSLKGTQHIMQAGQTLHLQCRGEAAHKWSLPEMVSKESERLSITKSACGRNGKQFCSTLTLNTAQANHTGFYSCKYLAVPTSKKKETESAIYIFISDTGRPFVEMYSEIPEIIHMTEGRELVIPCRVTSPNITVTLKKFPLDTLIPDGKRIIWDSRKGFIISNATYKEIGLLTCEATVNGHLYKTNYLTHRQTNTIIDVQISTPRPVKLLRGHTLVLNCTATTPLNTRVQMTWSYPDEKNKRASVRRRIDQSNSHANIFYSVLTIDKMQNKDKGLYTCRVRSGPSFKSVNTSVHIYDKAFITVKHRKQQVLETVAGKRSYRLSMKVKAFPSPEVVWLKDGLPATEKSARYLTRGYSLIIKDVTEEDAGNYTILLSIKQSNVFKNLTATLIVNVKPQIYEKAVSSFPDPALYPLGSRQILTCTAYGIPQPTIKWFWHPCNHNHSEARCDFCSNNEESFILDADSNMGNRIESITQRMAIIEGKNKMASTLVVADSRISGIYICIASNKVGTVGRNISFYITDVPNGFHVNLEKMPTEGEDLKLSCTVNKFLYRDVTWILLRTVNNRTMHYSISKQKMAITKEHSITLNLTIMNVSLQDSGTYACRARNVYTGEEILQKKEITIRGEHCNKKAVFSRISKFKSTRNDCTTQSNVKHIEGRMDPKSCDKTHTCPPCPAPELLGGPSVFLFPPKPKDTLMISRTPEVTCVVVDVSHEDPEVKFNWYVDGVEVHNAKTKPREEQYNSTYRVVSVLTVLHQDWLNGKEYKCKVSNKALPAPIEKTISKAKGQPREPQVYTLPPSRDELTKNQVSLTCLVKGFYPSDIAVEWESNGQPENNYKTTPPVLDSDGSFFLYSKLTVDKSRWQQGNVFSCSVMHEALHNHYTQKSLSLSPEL

Substance	average ratio of the neovascular area [1]	inhibition of the bonding between VEGF165 and Flt1-Fc ([2]; at 200 nM)	Cmax [3, 5]	Tmax [3, 5]	time for which the concentration in the vitreous body was maintained above base line [3, 6]	inhibition of the bonding between VEGF165 and Flt1-Fc, up to ([2]; dose-dependent, 20-20000 nM peptide, positive control set to 100%)	Cmax in the vitreous body [3, 6]	Tmax in the vitreous body [3, 6]	AUC / bioavailability (AUC/dose) in the vitreous body ([3]; same dose, compared with anti-Flt1 peptide)	average diameter by TEM [4]
GGNQWFI [anti-Flt1 peptide, GGNQWFI]	27±5.7%	failed to inhibit	800 ± 700 µg/mL	24 h	< 10 days					
HA-GGNQWFI: hyaluronic acid (MW 100 kDa) conjugated with GGNQWFI, 20 peptides per one molecule of HA-TBA (also: conjugated to hyaluronic acid, about 20 peptides per HA)	17.4±5.6%				at least 14 days	about 32%	1.6 ± 0.6 mg/mL	6 h	higher AUC than that of the anti-Flt1 peptide	234.5±20.6 nm
